This note sets out measurements from US12509424B2, “Compound and composition as PDGF receptor kinase inhibitor” (NIPPON SHINYAKU CO., LTD., priority 2019, dated 2025).

Structures are written as SMILES. Read-outs that look alike come from different tables or passages of the source.

In assay [1] the target is PDGFR-β (Homo sapiens (Human), UniProt P09619). Nature of the assay: PDGFR-β tyrosine kinase inhibitory action (HTRF KinEASE-TK). Type of assay: biochemical. The conditions noted are these: PDGFR-β enzyme 1 ng/μL, 30° C. for 30 minutes; read-out: PDGF-β IC50. In a few lines: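 Recombinant PDGFR-β at 1 ng/μL final with TK substrate-3-biotin in a substrate solution containing 0.6 μM ATP; buffer 50 mM HEPES pH 7.0, 5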
On the technique in general: Time-resolved FRET reads energy transfer from a long-lived donor to a nearby acceptor.

Assay [2] addresses TEL-PDGFRβ fusion gene transfected cells (Ba/F3). In words: Suppression of proliferation of TEL-PDGFRβ fusion gene transfected Ba/F3 cells. Type of assay: cell-based, human. The conditions noted are these: TEL-PDGFRβ expressing Ba/F3 cells, 72 hours, final concentration 0.1 to 10,000 nM; read-out: PDGFR β/BaF3 proliferation inhibition (IC50). The source says:
2. Preparation of Test Substance
4. Analysis of Measurement Results

Assay [3] deals with pulmonary arterial smooth muscle cells. In words: Suppression of proliferation of pulmonary arterial smooth muscle cells (PDGF-BB stimulation, BrdU). The assay is classed as cell-based. The conditions noted are these: PASMC, read-out: Human normal PASMC proliferation suppression (PDGF stimulation_IC50). The procedure, abridged: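 Healthy human pulmonary arterial smooth muscle cells, serum-starved a day in 0.1% FBS medium, were treated with compound at final 3 to 10,000 nM plus human PDGF-BB (final 10 ng/mL) and BrdU. After 1 day of culture, BrdU uptake was measured with an anti-BrdU antibody.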

Assay [4] has as its target TEL-KIT fusion gene transfected cells (Ba/F3). In words: Suppression of proliferation of TEL-KIT fusion gene transfected Ba/F3 cells.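 Further: viable cells quantified via formazan from tetrazolium reduction, inhibition scaled with 0.1% DMSO control as 0% and medium-only blank as 100%, IC50 from two-parameter logistic fit.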 The conditions noted are these: read-out: KIT/BaF3 proliferation inhibition (IC50); TEL-KIT expressing Ba/F3 cells, 72 hours, final concentration 0.1 to 10,000 nM.
The mark [5] stands for this setting: human PDGF-BB 10 ng/mL, BrdU uptake, final concentration 3 to 10,000 nM.
Where [6] appears, read: 24 h, healthy human derived pulmonary arterial smooth muscle cells, human PDGF-BB 10 ng/mL stimulation, BrdU uptake after 1 day, test substance final concentration 3 to 10,000 nM.

TEL-KIT fusion gene transfected cells (Ba/F3), sequence (P10721 26-976 limits assumed, change not shown): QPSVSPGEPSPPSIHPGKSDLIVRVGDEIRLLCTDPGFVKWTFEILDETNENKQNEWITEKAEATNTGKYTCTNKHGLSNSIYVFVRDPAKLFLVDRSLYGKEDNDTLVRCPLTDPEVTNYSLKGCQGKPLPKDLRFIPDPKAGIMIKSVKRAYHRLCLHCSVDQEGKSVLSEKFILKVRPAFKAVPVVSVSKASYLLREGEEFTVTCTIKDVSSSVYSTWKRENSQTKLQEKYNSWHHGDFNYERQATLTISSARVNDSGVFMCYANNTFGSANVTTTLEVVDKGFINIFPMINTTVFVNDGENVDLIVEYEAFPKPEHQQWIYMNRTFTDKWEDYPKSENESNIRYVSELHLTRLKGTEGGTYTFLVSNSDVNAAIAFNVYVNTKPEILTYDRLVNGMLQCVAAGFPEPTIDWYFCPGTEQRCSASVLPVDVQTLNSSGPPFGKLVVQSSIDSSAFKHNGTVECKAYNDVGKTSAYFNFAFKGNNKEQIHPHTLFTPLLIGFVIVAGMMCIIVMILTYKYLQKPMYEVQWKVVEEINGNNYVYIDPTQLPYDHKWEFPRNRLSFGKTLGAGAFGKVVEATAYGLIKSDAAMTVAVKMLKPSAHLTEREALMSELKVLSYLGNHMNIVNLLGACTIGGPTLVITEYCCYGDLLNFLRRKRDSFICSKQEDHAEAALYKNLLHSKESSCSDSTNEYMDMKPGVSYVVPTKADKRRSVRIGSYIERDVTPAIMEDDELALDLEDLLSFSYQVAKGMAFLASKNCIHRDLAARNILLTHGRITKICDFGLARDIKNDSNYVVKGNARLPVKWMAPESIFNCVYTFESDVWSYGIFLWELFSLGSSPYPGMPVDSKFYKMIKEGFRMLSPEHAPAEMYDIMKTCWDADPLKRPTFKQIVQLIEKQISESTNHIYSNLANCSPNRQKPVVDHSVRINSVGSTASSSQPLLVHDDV
TEL-PDGFRβ fusion gene transfected cells (Ba/F3), sequence (P09619 33-1106 limits assumed, change not shown): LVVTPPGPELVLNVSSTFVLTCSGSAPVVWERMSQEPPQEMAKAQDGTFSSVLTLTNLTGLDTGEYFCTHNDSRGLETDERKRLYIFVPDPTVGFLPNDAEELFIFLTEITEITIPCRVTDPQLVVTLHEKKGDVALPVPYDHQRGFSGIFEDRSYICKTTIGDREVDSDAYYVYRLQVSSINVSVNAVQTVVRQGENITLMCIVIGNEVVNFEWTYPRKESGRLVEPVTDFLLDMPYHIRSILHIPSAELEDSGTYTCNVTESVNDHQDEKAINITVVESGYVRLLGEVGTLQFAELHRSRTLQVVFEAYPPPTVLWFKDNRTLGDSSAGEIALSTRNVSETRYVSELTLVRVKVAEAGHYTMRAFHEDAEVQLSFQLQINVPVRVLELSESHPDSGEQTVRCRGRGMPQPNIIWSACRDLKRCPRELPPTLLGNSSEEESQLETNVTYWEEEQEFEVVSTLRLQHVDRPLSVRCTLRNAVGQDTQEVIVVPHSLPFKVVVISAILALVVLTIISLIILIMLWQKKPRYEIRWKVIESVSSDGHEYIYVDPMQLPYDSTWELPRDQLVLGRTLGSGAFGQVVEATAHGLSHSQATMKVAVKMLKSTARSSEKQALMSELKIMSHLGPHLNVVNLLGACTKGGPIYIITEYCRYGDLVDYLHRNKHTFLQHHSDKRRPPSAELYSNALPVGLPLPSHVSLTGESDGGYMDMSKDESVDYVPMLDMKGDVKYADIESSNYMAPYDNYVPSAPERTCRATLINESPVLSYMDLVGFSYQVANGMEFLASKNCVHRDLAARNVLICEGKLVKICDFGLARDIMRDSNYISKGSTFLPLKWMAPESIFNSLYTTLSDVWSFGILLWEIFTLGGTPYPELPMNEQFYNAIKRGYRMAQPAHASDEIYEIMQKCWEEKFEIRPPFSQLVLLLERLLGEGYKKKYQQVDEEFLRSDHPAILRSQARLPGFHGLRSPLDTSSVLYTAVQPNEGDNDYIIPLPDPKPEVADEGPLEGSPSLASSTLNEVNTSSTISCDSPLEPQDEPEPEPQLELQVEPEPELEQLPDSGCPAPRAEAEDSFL
PDGFR-β, sequence (P09619 33-1106): as the sequence (P09619 33-1106 limits assumed, change not shown) above

As to `Cc1ccc(C(=O)N[C@H]2CCCC[C@@H]2O)cc1NC(=O)c1cnc(NCC2CC2)s1` [Example 8, 2-[(cyclopropylmethyl)amino]-N-(5-{[(1S,2S)-2-hydroxycyclohexyl]carbamoyl}-2-methylphenyl)-1,3-thiazole-5-carboxamide], the IC50 in assay [1] stood at 6 nM; in assay [2] it was 9.7 nM; in assay [3] (setting [5]) it was 110 nM; in assay [4], 650 nM.
Turning to `Cc1ccc(C(=O)N[C@H]2CCCC[C@@H]2O)cc1NC(=O)c1cncc(-c2cccc(OC(F)(F)F)c2)c1` [Example 34, N-(5-{[(1S,2S)-2-hydroxycyclohexyl]carbamoyl}-2-methylphenyl)-5-[3-(trifluoromethoxy)phenyl]pyridine-3-carboxamide], the IC50 in assay [1] is 19 nM; in assay [2], 8 nM; in assay [3] (setting [6]), 130 nM; in assay [4], 540 nM.
As for `Cc1ccc(C(=O)N[C@H]2CCCC[C@@H]2O)cc1N[C@@H](C)c1cncc(-c2cccnc2)c1` [Example 85, 3-{[(1S)-1-([3,3′-bipyridin]-5-yl)ethyl]amino}-N-[(1S,2S)-2-hydroxycyclohexyl]-4-methylbenzamide], the IC50 in assay [1] is 180 nM; in assay [2] it was 19 nM; in assay [3] (setting [6]) it was 130 nM; in assay [4], 4600 nM.
On the same counts, the results for `Cc1ccc(C(=O)N[C@H]2CCCC[C@@H]2O)cc1NCc1cncc(-c2ncc(F)cn2)c1` [Example 107, 3-({[5-(5-fluoropyrimidin-2-yl)pyridin-3-yl]methyl}amino)-N-[(1S,2S)-2-hydroxycyclohexyl]-4-methylbenzamide] are 190 nM, 19 nM, 110 nM and 1200 nM.
For `Cc1ccc(C(=O)N[C@H]2CCCC[C@@H]2O)cc1NC(=O)c1cncc(-c2cccc(F)c2F)c1` [Example 30, 5-(2,3-difluorophenyl)-N-(5-{[(1S,2S)-2-hydroxycyclohexyl]carbamoyl}-2-methylphenyl)pyridine-3-carboxamide], the IC50 is 44 nM in assay [1], 22 nM in assay [2], 52 nM in assay [3] (setting [6]) and 1300 nM in assay [4].
With `O=C(Nc1cc(CNc2cncc(-c3ncccn3)c2)ccc1F)N[C@@H]1CCCC[C@@H]1O` [Example 160, N-[2-fluoro-5-({[5-(pyrimidin-2-yl)pyridin-3-yl]amino}methyl)phenyl]-N′-[(1R,2S)-2-hydroxycyclohexyl]urea], the IC50 in assay [1] amounted to 46 nM; in assay [2], 5.9 nM; in assay [3] (setting [6]) it was 44 nM; in assay [4], 1200 nM.
In the case of `Cc1ccc(C(=O)N[C@H]2CCCC[C@@H]2O)cc1NCc1cnc2ccccc2c1` [Example 96, N-[(1S,2S)-2-hydroxycyclohexyl]-4-methyl-3-{[(quinolin-3-yl)methyl]amino}benzamide], the IC50 was 200 nM in assay [1], 12 nM in assay [2], 72 nM in assay [3] (setting [6]) and 310 nM in assay [4].
Take `Cc1ccc(C(=O)N[C@H](CO)c2ccccc2)cc1NC(=O)c1cncc(-c2ccccc2)c1` [Example 6, N-(5-{[(1S)-2-hydroxy-1-phenylethyl]carbamoyl}-2-methylphenyl)-5-phenylpyridine-3-carboxamide]: the IC50 in assay [1] was determined as 12 nM; in assay [2], 14 nM; in assay [3] (setting [5]), 23 nM; in assay [4], 170 nM.
For `O=C(N[C@H]1CCCC[C@@H]1O)c1ccc(Cl)c(C#Cc2cncc(Br)c2)c1` [Example 57, 3-[(5-bromopyridin-3-yl)ethynyl]-4-chloro-N-[(1S,2S)-2-hydroxycyclohexyl]benzamide], the IC50 in assay [1] came out at 51 nM; in assay [2] it was 440 nM; in assay [3] (setting [6]), 420 nM; in assay [4] it was 6900 nM.
For the compound `Cc1ccc(C(=O)N[C@H]2CCCC[C@@H]2O)cc1NCc1cncc(C#CC2(O)CC2)c1` [Example 97, N-[(1S,2S)-2-hydroxycyclohexyl]-3-[({5-[(1-hydroxycyclopropyl)ethynyl]pyridin-3-yl}methyl)amino]-4-methylbenzamide], the IC50 in assay [1] was 100 nM; in assay [2], 20 nM; in assay [3] (setting [6]), 160 nM; in assay [4], 1900 nM.
For `O=C(Nc1cc(C(=O)N[C@H]2CCCC[C@@H]2O)ccc1Cl)c1cncc(OCC2CC2)c1` [Example 44, N-(2-chloro-5-{[(1S,2S)-2-hydroxycyclohexyl]carbamoyl}phenyl)-5-(cyclopropylmethoxy)pyridine-3-carboxamide], the IC50 in assay [1] turned out to be 190 nM; in assay [2] it was 21 nM; in assay [3] (setting [6]), 140 nM; in assay [4] it was 940 nM.
Consider `COc1ccc(-c2cncc(NCc3cccc(NC(=O)N[C@@H]4CCCC[C@@H]4O)c3)n2)cc1OC` [Example 158, N-[3-({[6-(3,4-dimethoxyphenyl)pyrazin-2-yl]amino}methyl)phenyl]-N′-[(1R,2S)-2-hydroxycyclohexyl]urea], for which the IC50 in assay [1] was 26 nM; in assay [2] it was 41 nM; in assay [3] (setting [6]) it was 22 nM; in assay [4], 3000 nM.
Turning to `Cc1ccc(C(=O)N[C@H]2CCCC[C@@H]2O)cc1NC(=O)c1cnc(CC2CC2)s1` [Example 3, 2-(cyclopropylmethyl)-N-(5-{[(1S,2S)-2-hydroxycyclohexyl]carbamoyl}-2-methylphenyl)-1,3-thiazole-5-carboxamide], the IC50 was 82 nM in assay [1], 1.4 nM in assay [2], 30 nM in assay [3] (setting [5]) and 620 nM in assay [4].
Consider `Cc1ccc(C(=O)N[C@H]2CCCC[C@@H]2O)cc1N[C@@H](C)c1cncc(C#Cc2ccccc2)c1` [Example 86, N-[(1S,2S)-2-hydroxycyclohexyl]-4-methyl-3-({(1S)-1-[5-(phenylethynyl)pyridin-3-yl]ethyl}amino)benzamide], for which the IC50 in assay [1] is 230 nM; in assay [2] it was 42 nM; in assay [3] (setting [6]), 280 nM; in assay [4] it was 1700 nM.
Turning to `Cc1ccc(C(=O)N[C@H]2CCCC[C@@H]2O)cc1NC(=O)c1cncc(-c2ccccc2OC(F)(F)F)c1` [Example 35, N-(5-{[(1S,2S)-2-hydroxycyclohexyl]carbamoyl}-2-methylphenyl)-5-[2-(trifluoromethoxy)phenyl]pyridine-3-carboxamide], the IC50 was determined as 160 nM in assay [1], 17 nM in assay [2], 320 nM in assay [3] (setting [6]) and 2200 nM in assay [4].
`Cc1ccc(C(=O)N[C@H]2CCCC[C@@H]2O)cc1NCc1cncc(C#CC2CC2)c1` [Example 94, 3-({[5-(cyclopropylethynyl)pyridin-3-yl]methyl}amino)-N-[(1S,2S)-2-hydroxycyclohexyl]-4-methylbenzamide]: the IC50 in assay [1] is 49 nM; in assay [2], 10 nM; in assay [3] (setting [6]) it was 90 nM; in assay [4], 260 nM.
On the same counts, the results for `Cc1ccc(C(=O)N[C@H]2CCCC[C@@H]2O)cc1C#Cc1cncc(-c2ccccc2F)n1` [Example 69, 3-{[6-(2-fluorophenyl)pyrazin-2-yl]ethynyl}-N-[(1S,2S)-2-hydroxycyclohexyl]-4-methylbenzamide] are 25 nM, 5.8 nM, 61 nM and 330 nM.
In the same order, the values of `Cc1ccc(C(=O)N[C@H]2CCCC[C@@H]2O)cc1N[C@@H](C)c1cncc(-c2ncccn2)c1` [Example 88, N-[(1S,2S)-2-hydroxycyclohexyl]-4-methyl-3-({(1S)-1-[5-(pyrimidin-2-yl)pyridin-3-yl]ethyl}amino)benzamide] are 230 nM, 43 nM, 210 nM and 6000 nM.
With `Cc1ccc(C(=O)N[C@H]2CCCC[C@@H]2O)cc1NC(=O)c1cncc(OC2CCC(F)(F)CC2)c1` [Example 28, 5-[(4,4-difluorocyclohexyl)oxy]-N-(5-{[(1S,2S)-2-hydroxycyclohexyl]carbamoyl}-2-methylphenyl)pyridine-3-carboxamide], the IC50 in assay [1] turned out to be 170 nM; in assay [2] it was 50 nM; in assay [3] (setting [5]) it was 280 nM; in assay [4], 5800 nM.
In the case of `CC(C)=Cc1cncc(C(=O)Nc2cc(C(=O)N[C@H]3CCCC[C@@H]3O)ccc2C)c1` [Example 23, N-(5-{[(1S,2S)-2-hydroxycyclohexyl]carbamoyl}-2-methylphenyl)-5-(2-methylprop-1-en-1-yl)pyridine-3-carboxamide], the IC50 in assay [1] was determined as 26 nM; in assay [2], 4.9 nM; in assay [3] (setting [5]), 64 nM; in assay [4], 620 nM.
With `Cc1ccc(C(=O)N[C@H]2CCCC[C@@H]2O)cc1N[C@@H](C)c1cncc(-c2ccccn2)c1` [Example 89, 3-{[(1S)-1-([2,3′-bipyridin]-5′-yl)ethyl]amino}-N-[(1S,2S)-2-hydroxycyclohexyl]-4-methylbenzamide], the IC50 in assay [1] came out at 78 nM; in assay [2], 20 nM; in assay [3] (setting [6]), 190 nM; in assay [4], 610 nM.
